Test results from patent EP0385679B1, “Heterocyclic cyclic ethers with inhibitory activity on 5-lipoxygenase” (ZENECA LIMITED, priority 1989, dated 1990).

Tests used:
5-LO = biological target: T1, 5-LO (Homo sapiens, UniProt P09917); assay: Test b): heparinised human blood challenged with A23187, radioimmunoassay of LTB₄; format: cell-based; conditions: heparinised human blood, calcium ionophore A23187 challenge; read-out: IC₅₀ against LTB₄ in test b)
T1 construct: incubating a test compound with heparinised human blood, prior to challenge with the calcium ionophore A23187; endogenous in cells; host or cells: human whole blood (heparinised), blood cells
T1 sequence (P09917 1-674): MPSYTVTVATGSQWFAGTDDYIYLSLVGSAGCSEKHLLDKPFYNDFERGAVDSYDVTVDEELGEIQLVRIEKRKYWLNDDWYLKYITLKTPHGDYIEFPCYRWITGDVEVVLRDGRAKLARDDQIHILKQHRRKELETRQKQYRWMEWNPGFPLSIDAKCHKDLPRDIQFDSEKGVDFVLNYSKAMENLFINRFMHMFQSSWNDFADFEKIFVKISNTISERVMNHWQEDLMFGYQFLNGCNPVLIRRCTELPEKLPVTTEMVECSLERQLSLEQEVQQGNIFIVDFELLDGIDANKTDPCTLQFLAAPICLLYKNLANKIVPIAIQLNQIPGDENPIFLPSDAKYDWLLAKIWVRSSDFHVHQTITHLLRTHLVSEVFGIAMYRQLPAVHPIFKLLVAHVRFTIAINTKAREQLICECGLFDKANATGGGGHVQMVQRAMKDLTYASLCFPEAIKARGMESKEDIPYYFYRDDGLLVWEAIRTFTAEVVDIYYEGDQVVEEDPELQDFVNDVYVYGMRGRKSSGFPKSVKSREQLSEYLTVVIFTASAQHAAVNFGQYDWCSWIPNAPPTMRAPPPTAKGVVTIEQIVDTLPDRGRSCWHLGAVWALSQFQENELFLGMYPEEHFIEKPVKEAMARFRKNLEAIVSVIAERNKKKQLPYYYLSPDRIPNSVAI
Description: (§1) As stated previously, the heterocyclic cyclic ethers of the formula I are inhibitors of the enzyme 5-LO. […] This test provides a measure of the intrinsic inhibitory properties against soluble 5-LO in an extracellular environment. • b) An in vitro assay system involving incubating a test compound with heparinised human blood, prior to challenge with the calcium ionophore A23187 and then indirectly measuring the inhibitory effects on 5-LO by assaying the amount of LTB₄ using the specific radioimmunoassay described by Carey and Forder (F. Carey and R.A. Forder, Brit. […] The effects of a test compound on the enzyme cyclooxygenase (which is involved in the alternative metabolic pathway for arachidonic acid and gives rise to prostaglandins, thromboxanes and related metabolites) may be measured at the same time using the specific radioimmunoassay for thromboxane B₂(TxB₂) described by Carey and Forder (see above). […] It permits the selectivity of the inhibitory effect on 5-LO or cyclooxygenase to be assessed. • c) An ex vivo assay system, which is a variation of test b) above, involving administration of a test compound (usually orally as the suspension produced when a solution of the test compound in dimethylsulphoxide is added to carboxymethylcellulose), blood collection, heparinisation, challenge with A23187 and radioimmunoassay of LTB₄ and TxB₂. […]

cyclooxygenase = biological target: T2, cyclooxygenase (Homo sapiens, UniProt P23219); assay: Test b): heparinised human blood challenged with A23187, radioimmunoassay of TxB₂; format: cell-based; conditions: heparinised human blood, calcium ionophore A23187 challenge; read-out: IC₅₀ against TxB₂ in test b)
T2 construct: may be measured at the same time using the specific radioimmunoassay for thromboxane B₂(TxB₂); endogenous in cells; host or cells: human whole blood (heparinised), blood cells
Description: as §1

T2 sequence (P23219 24-599): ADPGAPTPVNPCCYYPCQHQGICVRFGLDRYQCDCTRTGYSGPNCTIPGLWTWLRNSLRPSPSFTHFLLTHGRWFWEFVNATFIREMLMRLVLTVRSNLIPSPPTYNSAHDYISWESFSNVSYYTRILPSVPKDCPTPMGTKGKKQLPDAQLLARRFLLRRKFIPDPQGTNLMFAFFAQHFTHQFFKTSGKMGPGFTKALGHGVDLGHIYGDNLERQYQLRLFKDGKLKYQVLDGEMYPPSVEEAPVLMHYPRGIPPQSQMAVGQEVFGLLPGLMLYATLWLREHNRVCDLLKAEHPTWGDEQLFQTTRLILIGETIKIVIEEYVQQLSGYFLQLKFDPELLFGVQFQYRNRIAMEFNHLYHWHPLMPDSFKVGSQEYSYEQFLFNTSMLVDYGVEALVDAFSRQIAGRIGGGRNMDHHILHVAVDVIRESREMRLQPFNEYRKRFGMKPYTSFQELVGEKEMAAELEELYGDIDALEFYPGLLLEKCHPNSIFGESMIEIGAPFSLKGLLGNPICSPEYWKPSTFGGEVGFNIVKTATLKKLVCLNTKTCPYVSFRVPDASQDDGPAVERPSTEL

IC50 (5-LO) [nM]	IC50 (cyclooxygenase) [nM]	SMILES
800	> 40000	CCC1(c2cccc(OCC#Cc3ccccn3)c2)COC(C)(C)O1 (stereo not drawn) [2,2-dimethyl-4-ethyl-4-[3-(3-(2-pyridyl)prop-2-yn-1-yloxy)phenyl]-1,3-dioxolane]
80	–	CCC1(c2cc(F)cc(OCc3ccc4c(ccc(=O)n4C)c3)c2)COC(C)(C)O1 (stereo not drawn) [4-ethyl-4-[5-fluoro-3-(1,2-dihydro-1-methyl-2-oxoquinolin-6-ylmethoxy)phenyl]-2,2-dimethyl-1,3-dioxolane]
